From patent US12188947B2, “Marker for diagnosing atherosclerosis severity, and diagnostic method using same” (EWHA UNIVERSITY—INDUSTRY COLLABORATION FOUNDATION, priority 2018, dated 2025)
Where no end group is shown, it is not given here.

Assay: Metabolic phenotype (body weight, metabolic organ weights) after LGI3 antagonist peptide injection
Assay type: in vivo, mouse
Method: LGI3 P34, made with a mouse LGI3 antagonist peptide, is a 15mer synthetic peptide containing amino acids (aa) […] (DEGRQKFVRFQELAV (SEQ ID NO:3)) of mouse Lgi3. The synthetic LGI3 peptide was dissolved in PBS and sterilized by filtration. PBS injection was used as a control for mouse experiments. All peptides were synthesized by Peptron (Seoul, Korea). Apoe^−/− mice fed a high fat diet for 16 weeks were intraperitoneally injected with PBS or the LGI3 antagonist peptide twice a week for the last 5 weeks.
Statistical analysis was performed using InStat. A two-sided Mann-Whitney U-test was used for comparison between two groups, and one-way ANOVA was used for comparisons among three or more groups. All data is presented as mean s.e.m, and P-values of ≤0.05 were considered statistically significant.

## DEGRQKFVRFQELAV [LGI3 P34, DEGRQKFVRFQELAV]
Apoe −/− mice, high fat diet 16 weeks, intraperitoneal injection for the last 5 weeks, n=9, PBS control 1.689±0.43, P=0.84
  epididymal fat weight: 1.58±0.51%
Apoe −/− mice, high fat diet 16 weeks, intraperitoneal injection for the last 5 weeks, n=9, PBS control 39.22±3.51, P=0.536
  body weight: 38.08 ± 2.19 g
Body weight, WAT, spleen and liver weight to body weight versus control mice, FIG. 6
  metabolic phenotype (in words): not changed
